Structures can show the parent of a compound that is named as a salt. Where two headings read alike, the source gives them in different places.
Key:
Type in all cases: in vivo
[1] = system: 3rd instar larvae of Spodoptera litura; assay: Test of efficacy against 3rd instar larvae of Spodoptera litura (dried Bt cultures mixed into artificial feed); details: for Measured insecticidal rate (%): agent alone, 2 μg/g Feed, 25° C., 5 days; for insecticidal efficacy against the 3rd instar larvae of Spodoptera litura (in words): alone, application concentration of 2 μg/g feed
Method: A suspension of dried Btk culture or dried Bta culture was prepared by adding distilled water to the dried Btk culture or dried Bta culture prepared in Preparation Example 1. This suspension was admixed with prumycin hydrochloride prepared in Production Example 1 or kanosamine hydrochloride (Sigma-Aldrich Japan, LLC) at the prescribed concentration to prepare a solution. The obtained solution was admixed with artificial feed (Insecta LFS (manufactured by Nosan Corporation)) as shown in Tables 1 to 6 so that the content of the dried Btk culture or Bta culture was 0.2 to 2 mg/g of the artificial feed and the content of prumycin hydrochloride or kanosamine hydrochloride was 2 μg/g of the artificial feed. The artificial feed containing the dried Btk culture or dried Bta culture mixed with prumycin hydrochloride or kanosamine hydrochloride was placed on a petri dish (90 mm in diameter and 15 mm in height), and ten 3rd instar larvae of Spodoptera litura reared in a rearing room at 25° C. were released into the petri dish (triplicate). Each petri dish was closed and kept at 25° C. for 5 days.
The number of dead insects was then macroscopically counted by observing the inside of the petri dish, and the (measured) insecticidal rate (%) of the number of dead insects to the total number of reared insects was determined.
In addition, the suspension of dried Btk culture alone, the suspension of dried Bta alone, prumycin hydrochloride alone, kanosamine hydrochloride alone, or a combination of prumycin hydrochloride and kanosamine hydrochloride was added to the artificial feed to achieve the application concentration per g of the artificial feed as shown in Tables 1 to 6. Except the above, ten 3rd instar larvae of Spodoptera litura were released into a petri dish (triplicate) and kept at 25° ° C. for 5 days, as in the above Example.
The inside of the petri dish was then observed and the (measured) insecticidal rate (%) was determined in the same way as in the above Example.
The expected theoretical insecticidal rate (%) when treated with the dried Btk culture or dried Bta culture mixed with prumycin hydrochloride or kanosamine hydrochloride was determined by Colby's calculation formula ([…]). […]
The presence or absence of synergistic effect was determined by comparing the theoretical and measured insecticidal rates (%) in the case of using the dried Btk culture or dried Bta culture in combination with prumycin hydrochloride or kanosamine hydrochloride.
Specifically, the case where the measured value was larger than the theoretical value was judged as “having a synergistic effect”, and the case where the measured value was equal to or smaller than the theoretical value was judged as “having no synergetic effect” with respect to the insecticidal rate (%).

[2] = system: 3rd instar larvae of Helicoverpa armigera; details: for insecticidal efficacy against the 3rd instar larvae of Helicoverpa armigera (in words): hydrochloride alone; for Number of dead insects/Number of test insects: 4 days
Text: Each insecticidal protein solution obtained was admixed with prumycin hydrochloride prepared in Production Example 1 or kanosamine hydrochloride (Sigma-Aldrich Japan, LLC.) at a prescribed concentration to prepare a solution containing the insecticidal protein and prumycin hydrochloride or kanosamine hydrochloride. The obtained solution was admixed with artificial feed (Insecta LFS (manufactured by Nosan Corporation)) as shown in Tables 10 to 13 so that the content of each insecticidal protein was 0.063 to 8 μg/g of the artificial feed and the content of prumycin hydrochloride or kanosamine hydrochloride was 10 μg/g of the artificial feed. In this way, each artificial feed containing the insecticidal protein and prumycin hydrochloride or kanosamine hydrochloride was prepared. In addition, the above-described insecticidal protein solution, prumycin hydrochloride, or kanosamine hydrochloride alone was admixed with the artificial feed as shown in Tables 10 to 13 so that the content of each insecticidal protein was 0.063 to 8 μg/g of the artificial feed or the content of prumycin hydrochloride or kanosamine hydrochloride was […] of the artificial feed, respectively. In this way, each artificial feed containing the insecticidal protein, prumycin hydrochloride, or kanosamine hydrochloride alone was prepared. Each artificial feed containing or free of each substance thus obtained was placed on a petri dish (35 mm in diameter and 10 mm in height), and one 3rd instar larva of Helicoverpa armigera reared in a rearing room at 25° C. was released into each petri dish (10 replicates). Each petri dish was closed and kept at 25° ° C. for 4 days.
The number of dead insects was then macroscopically examined by observing the inside of each petri dish, and the LC50 value was calculated by the probit method. Next, based on the following equation, the ratio of the test plot without prumycin hydrochloride or kanosamine hydrochloride to the test plot with prumycin hydrochloride or kanosamine hydrochloride was calculated to determine the increase in insecticidal activity when prumycin hydrochloride or kanosamine hydrochloride was added.

[3] = system: 3rd instar larvae of Spodoptera litura; details: for insecticidal efficacy against the 3rd instar larvae of Spodoptera litura (in words): hydrochloride alone; for Number of dead insects/Number of test insects: hydrochloride alone 10 μg/g Feed, insecticidal protein Absent, 5 days
Method: Each artificial feed containing or free of each substance thus obtained was placed on a petri dish (90 mm in diameter and 15 mm in height), and ten 3rd instar larva of Spodoptera litura reared in a rearing room at 25° C. were released into each petri dish (3 replicates). Each petri dish was closed and kept at 25° C. for 5 days.
After that, the number of dead insects was macroscopically counted by observing the inside of the petri dish. The LC50 values were calculated by the probit method, and the increase in insecticidal activity due to the addition of prumycin or kanosamine was calculated based on the same formula as in Test Example 4 above.

[4] = hydrochloride alone 10 μg/g Feed, insecticidal protein Absent

Molecule | Measured insecticidal rate (%) [1] | insecticidal efficacy against the 3rd instar larvae of Spodoptera litura (in words) [1] | insecticidal efficacy against the 3rd instar larvae of Helicoverpa armigera (in words) [2] | Number of dead insects/Number of test insects [2, 4] | insecticidal efficacy against the 3rd instar larvae of Spodoptera litura (in words) [3] | Number of dead insects/Number of test insects [3] | Number of dead insects/Number of test insects ([2]; insecticidal protein alone 0.063 μg/g Feed) | Number of dead insects/Number of test insects ([2]; insecticidal protein alone 0.125 μg/g Feed) | Number of dead insects/Number of test insects ([2]; insecticidal protein alone 0.25 μg/g Feed) | Number of dead insects/Number of test insects ([2]; insecticidal protein alone 0.5 μg/g Feed) | Number of dead insects/Number of test insects ([2]; insecticidal protein alone 1 μg/g Feed) | Number of dead insects/Number of test insects ([2]; insecticidal protein alone 2 μg/g Feed)
N[C@H]1[C@H](O)[C@@H](CO)OC(O)[C@@H]1O (stereo partly drawn) [Kanosamine hydrochloride, 3-amino-3-deoxy-D-glucopyranose] | 0.0% | no insecticidal efficacy | no insecticidal efficacy | 0/10 | no insecticidal efficacy | 0/10 |  |  |  |  |  | 
CC(N)C(=O)NC1COC(O)C(N)C1O [Prumycin hydrochloride, 4-N-D-alanyl-2,4-diamino-2,4-dideoxyarabinose] | 0.0% | no insecticidal efficacy | no insecticidal efficacy | 0/10 | no insecticidal efficacy | 0/10 |  |  |  |  |  | 
Cry1A(c): Bacillus thuringiensis insecticidal protein expressed and purified in E. coli |  |  |  |  |  |  | 0/10 | 0/10 | 0/10 | 1/10 | 6/10 | 7/10

Source: patent publication US20240245057A1, “INSECTICIDAL COMPOSITION FOR AGRICULTURAL OR HORTICULTURAL USE AND METHOD OF CONTROLLING AGRICULTURAL OR HORTICULTURAL PEST” (SDS BIOTECH K.K, priority 2021, published 2024)
